Results taken from US11382956B2, “Amylin analogues” (Zealand Pharma A/S, priority 2016, dated 2022).
pEC50: −log10 of the molar value. Numbered stars: 1 amine (or outer) side, 2 acyl side, 3 side chain; on linkers, the order of the positions; unused ones are H or OH. Bridge positions count the residues as written; N and C are the ends. Square brackets hold non-standard residues; d marks the D form. Peptide text beside a SMILES is read from it. * marks the point of attachment. C20 diacid = O=C(O)CCCCCCCCCCCCCCCCCCC(=O)*; γGlu = O=C(O)[C@H](CCC(=O)[*:2])N[*:1]; Hyp = O=C(O)[C@@H]1C[C@@H](O)CN1; NMeI = CC[C@H](C)[C@H](NC)C(=O)O; Aad = N[C@@H](CCCC(=O)O)C(=O)O; hLys = NCCCCC[C@H](N)C(=O)O; Sar = CNCC(=O)O

Key:
[1] = molecular target: T1, recombinant human calcitonin receptor (hCT-R) (Homo sapiens, UniProt P30988); test: hCT-R cAMP assay (AlphaScreen) in 1321N1 cells; format: cell-based; settings: cAMP formation, 45 min stimulation
T1 construct: host or cells: human astrocytoma cell line 1321N1
T1 sequence (P30988 25-474): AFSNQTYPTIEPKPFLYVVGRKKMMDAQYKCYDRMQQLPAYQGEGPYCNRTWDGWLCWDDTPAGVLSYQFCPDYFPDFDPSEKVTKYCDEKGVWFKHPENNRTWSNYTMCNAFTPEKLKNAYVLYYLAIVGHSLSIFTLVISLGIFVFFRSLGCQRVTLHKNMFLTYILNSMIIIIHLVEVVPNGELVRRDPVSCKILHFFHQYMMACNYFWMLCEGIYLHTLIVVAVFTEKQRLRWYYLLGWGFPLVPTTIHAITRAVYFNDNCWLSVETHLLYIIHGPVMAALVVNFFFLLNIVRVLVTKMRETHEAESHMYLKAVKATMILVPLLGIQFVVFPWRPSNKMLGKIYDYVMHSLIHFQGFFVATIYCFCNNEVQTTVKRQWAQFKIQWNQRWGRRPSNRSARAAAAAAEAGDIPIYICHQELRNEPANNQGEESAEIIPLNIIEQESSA
How it was run: (§1)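 EC50 values come from curve fits over at least 7 peptide concentrations, with cAMP read by AlphaScreen competition after 1 h in the dark. Cells were 1321N1 lines carrying human calcitonin receptor, with RAMP3 co-expressed for AMY3, treated 45 min at room temperature in the presence of IBMX.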

[2] = molecular target: T2, recombinant human amylin 3 receptor (hAMYR3) (Homo sapiens, UniProt O60896+P30988); test: hAMYR3 cAMP assay (AlphaScreen) in 1321N1 cells; format: cell-based; settings: cAMP formation, 45 min stimulation
T2 construct: host or cells: human astrocytoma cell line 1321N1
T2 sequence (P30988 25-474): T1 sequence (P30988 25-474)
T2 sequence (O60896 24-148 partner): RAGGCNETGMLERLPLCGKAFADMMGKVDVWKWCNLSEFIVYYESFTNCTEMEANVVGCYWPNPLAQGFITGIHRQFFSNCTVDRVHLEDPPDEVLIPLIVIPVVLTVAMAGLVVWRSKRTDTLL
How it was run: as §1

[3] = Chemical stability, alternative analysis in MilliQ water with pH adjusted, 40° C. (RP-HPLC); format: physicochemical
Experimental: In an alternative analysis, peptides were dissolved in MilliQ water and pH adjusted to 4.0, 7.5 or 9.0. Samples were placed in glass vials and incubated at 40° C. The samples were analyzed by RP-HPLC on a C8 column with gradient elution using a trifluoroacetic acid/acetonitrile/water eluent system. The area-percentage (area-%) of the main peak was determined by UV spectroscopy at 220 nm at each sampling time point.
The % degradation was calculated by subtracting the […].
The results of the chemical stability assessment after 8 days of incubation time are summarized as % degradation in Table 3 (below).

[4] = Assessment of physical stability: fibril formation by Thioflavin T fluorescence; format: physicochemical; parameters: key: FND = fibrillation not detected; FD = fibrillation detected; settings: 1 mg/mL peptide; for Fibrillation (in buffer) pH4 acetate: 50 mM acetate buffer pH 4.0, 96 hours at 40° C.; for Fibrillation (in buffer) pH7 histidine: 50 mM histidine buffer pH 7.0, 96 hours at 40° C.; for Fibrillation (in buffer) pH7 phosphate: 50 mM phosphate buffer pH 7.0, 96 hours at 40° C.
How it was run: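 Fibrillation detected (FD) means a significant rise in ThT fluorescence over 96 hours at 40° C, read at 10 min intervals each preceded by 300 s automixing. Samples: 1 mg/mL peptide, 40 μM ThT, in 50 mM phosphate or histidine (pH 7.0) or acetate (pH 4.0), triplicate.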

[5] = Assessment of chemical stability in 40 mM buffers at 40° C. (RP-HPLC); format: physicochemical; settings: 1 mg/mL; for % degradation after 72 h at 40° C. pH4 acetate: acetate buffer pH 4, 72 h; for % degradation after 72 h at 40° C. pH6 phosphate: phosphate buffer pH 6, 72 h; for % degradation after 72 h at 40° C. pH7 phosphate: phosphate buffer pH 7, 72 h
How it was run: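 Degradation is the main-peak area-% at each time point minus that at t=0, measured by C8 reversed-phase HPLC (TFA/acetonitrile/water gradient, 220 nm). Incubation at 40° C for 3 or 14 days, 1 mg/mL peptide in 40 mM buffer at pH 4, 6 or 7.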

[6] = Effect on acute food intake and body weight in normal Sprague Dawley rats; format: in vivo, Sprague Dawley (SD) rats; settings: Dose: 30 nmol/kg sc, vehicle-corrected
Text: Sprague Dawley (SD) rats were obtained from Janvier Labs, France. The animals arrived at least 14 days before the study start to allow acclimatization to experimental conditions. From arrival and throughout the study, the rats were housed in groups of 2 to 4 (n=2-4) in a light-, temperature- and humidity-controlled room. Animals had access ad libitum to food (KLIBA 3430, Provimi Kliba AG, Switzerland) and water (domestic quality tap water) during the entire study. Per group 6-8 rats were included. A vehicle group and positive control group were included in each set of tests. […] Dosing volume was 2 ml/kg. Food intake was recorded online using an automated food intake system (HM02, MBRose, Denmark) for 4 days or manually at 0 h for a predose and then 24, 48, 72 and 96 h post dosing. Body weight was measured daily.
Statistical analyses were performed using GraphPad™ Prism version 7. The measured parameters were compared using two-way ANOVA followed by Dunnett's multiple comparison tests. Differences were considered statistically significant at p<0.05.

Row | Structure (SMILES) | pEC50 [1] | pEC50 [2] | % degradation after 8 days at 40° C. pH4 ([3]; pH adjusted to 4.0, 8 days) | % degradation after 8 days at 40° C. pH7.5 ([3]; pH adjusted to 7.5, 8 days) | % degradation after 8 days at 40° C. pH9 ([3]; pH adjusted to 9.0, 8 days) | Fibrillation (in buffer) pH4 acetate [4] | Fibrillation (in buffer) pH7 histidine [4] | Fibrillation (in buffer) pH7 phosphate [4] | % degradation after 72 h at 40° C. pH4 acetate [5] | % degradation after 72 h at 40° C. pH6 phosphate [5] | % degradation after 72 h at 40° C. pH7 phosphate [5] | Body weight reduction in % at 48 h [6] | Food intake reduction in % at 48 h [6] | % degradation after 14 days at 40° C. pH4 acetate ([5]; acetate buffer pH 4, 14 days) | % degradation after 14 days at 40° C. pH6 phosphate ([5]; phosphate buffer pH 6, 14 days) | % degradation after 14 days at 40° C. pH7 phosphate ([5]; phosphate buffer pH 7, 14 days)
1 | CC[C@H](C)[C@@H](C(=O)N[C@@H](CC(C)C)C(=O)N[C@@H](CO)C(=O)N[C@@H](CO)C(=O)N[C@H](C(=O)N[C@@H](CCC(=O)O)C(=O)N[C@H](C(=O)NCC(=O)N[C@@H](CO)C(=O)N[C@@H](CC(N)=O)C(=O)N[C@H](C(=O)N1C[C@H](O)C[C@H]1C(N)=O)[C@@H](C)O)C(C)C)[C@@H](C)O)N(C)C(=O)[C@H](C)NC(=O)CN(C)C(=O)[C@H](Cc1ccccc1)NC(=O)[C@H](CO)NC(=O)[C@H](CO)NC(=O)[C@H](CCCNC(=N)N)NC(=O)[C@H](CCC(N)=O)NC(=O)[C@H](CC(C)C)NC(=O)[C@H](Cc1ccccc1)NC(=O)[C@H](Cc1c[nH]cn1)NC(=O)[C@H](C)NC(=O)[C@H](CC(C)C)NC(=O)[C@H](CCCNC(=N)N)NC(=O)[C@H](CCC(=O)O)NC(=O)[C@@H](NC(=O)[C@H](C)NC(=O)[C@@H]1CCCCCNC(=O)C[C@H](NC(=O)[C@H](CCCNC(=N)N)NC(=O)CC[C@H](NC(=O)CCCCCCCCCCCCCCCCCCC(=O)O)C(=O)O)C(=O)NCC(=O)N[C@@H]([C@@H](C)O)C(=O)N[C@@H](C)C(=O)N[C@@H]([C@@H](C)O)C(=O)N1)[C@@H](C)O [Compound 19, [19CD]-isoGlu-RD()GTAT-hLys()-ATERLAHFLQRSSF-Gly(Me)-A-Ile(Me)-LSSTEVGSNT-Hyp-NH2] ({C20 diacid-γGlu}-RDGTAT[hLys]ATERLAHFLQRSSF[Sar]A[NMeI]LSSTEVGSNT[Hyp]-NH2; lactam 2-7) | 10.55 | 11.22 | 3.9% | 6.2% | 4.2% |  |  |  |  |  |  |  |  |  |  | 
2 | CC[C@H](C)[C@@H](C(=O)N[C@@H](CC(C)C)C(=O)N[C@@H](CO)C(=O)N[C@@H](CO)C(=O)N[C@H](C(=O)N[C@@H](CCC(=O)O)C(=O)N[C@H](C(=O)NCC(=O)N[C@@H](CO)C(=O)N[C@@H](CC(N)=O)C(=O)N[C@H](C(=O)N1C[C@H](O)C[C@H]1C(N)=O)[C@@H](C)O)C(C)C)[C@@H](C)O)N(C)C(=O)[C@H](C)NC(=O)CN(C)C(=O)[C@H](Cc1ccccc1)NC(=O)[C@H](CO)NC(=O)[C@H](CO)NC(=O)[C@H](CCCNC(=N)N)NC(=O)[C@H](CCC(N)=O)NC(=O)[C@H](CC(C)C)NC(=O)[C@H](Cc1ccccc1)NC(=O)[C@H](CCCC(=O)O)NC(=O)[C@H](C)NC(=O)[C@H](CC(C)C)NC(=O)[C@H](CCCNC(=N)N)NC(=O)[C@H](CCC(N)=O)NC(=O)[C@@H](NC(=O)[C@H](C)NC(=O)[C@@H]1CCCCNC(=O)C[C@H](NC(=O)[C@H](CCCNC(=N)N)NC(=O)CC[C@H](NC(=O)CCCCCCCCCCCCCCCCCCC(=O)O)C(=O)O)C(=O)NCC(=O)N[C@@H]([C@@H](C)O)C(=O)N[C@@H](C)C(=O)N[C@@H]([C@@H](C)O)C(=O)N1)[C@@H](C)O [Compound 40, [19CD]-isoGlu-RD()GTATK()ATQRLA-Aad-FLQRSSF-Gly(Me)-A-Ile(Me)-LSSTEVGSNT-Hyp-NH2] ({C20 diacid-γGlu}-RDGTATKATQRLA[Aad]FLQRSSF[Sar]A[NMeI]LSSTEVGSNT[Hyp]-NH2; lactam 2-7) | 10.55 | 11.10 |  |  |  | FD | FND | FND | 1.1% | <1% | <1% | 7.3% | 83% |  |  | 
3 | CC[C@H](C)[C@@H](C(=O)N[C@@H](CC(C)C)C(=O)N[C@@H](CO)C(=O)N[C@@H](CO)C(=O)N[C@H](C(=O)N[C@@H](CCC(=O)O)C(=O)N[C@H](C(=O)NCC(=O)N[C@@H](CO)C(=O)N[C@@H](CC(N)=O)C(=O)N[C@H](C(=O)N1C[C@H](O)C[C@H]1C(N)=O)[C@@H](C)O)C(C)C)[C@@H](C)O)N(C)C(=O)[C@H](C)NC(=O)CN(C)C(=O)[C@H](Cc1ccccc1)NC(=O)[C@H](CO)NC(=O)[C@H](CO)NC(=O)[C@H](CCCNC(=N)N)NC(=O)[C@H](CCC(N)=O)NC(=O)[C@H](CC(C)C)NC(=O)[C@H](Cc1ccccc1)NC(=O)[C@H](CC(=O)O)NC(=O)[C@H](C)NC(=O)[C@H](CC(C)C)NC(=O)[C@H](CCCNC(=N)N)NC(=O)[C@H](CCC(N)=O)NC(=O)[C@@H](NC(=O)[C@H](C)NC(=O)[C@@H]1CCCCNC(=O)C[C@H](NC(=O)[C@H](CCCNC(=N)N)NC(=O)CC[C@H](NC(=O)CCCCCCCCCCCCCCCCCCC(=O)O)C(=O)O)C(=O)NCC(=O)N[C@@H]([C@@H](C)O)C(=O)N[C@@H](C)C(=O)N[C@@H]([C@@H](C)O)C(=O)N1)[C@@H](C)O [Compound 41, [19CD]-isoGlu-RD()GTATK()ATQRLADFLQRSSF-Gly(Me)-A-Ile(Me)-LSSTEVGSNT-Hyp-NH2] ({C20 diacid-γGlu}-RDGTATKATQRLADFLQRSSF[Sar]A[NMeI]LSSTEVGSNT[Hyp]-NH2; lactam 2-7) | 10.02 | 10.62 |  |  |  | FND | FND | FND | <1% | <1% | <1% | 11% | 75% | 1.1% | <1% | <1%
